For data set [1] the following is noted: pH 7.4.
Data set [2] in a line: drug distribution in porcine cornea ex vivo. It is filed as in vitro ADME. The method, then:
Fresh porcine (a crossbreed between Matias and Yorkside) eyes were collected in the laboratory animal center at the University of Eastern Finland. The eyes were stored overnight in a keratinocyte serum-free medium (Gibco, Life Technologies Corporation, Grand Island, NY, USA) at +4 °C. The cornea was excised using an incision along the limbus, as described earlier.
The isolated corneas were rinsed with PBS and mounted in vertical Franz diffusion cells (PermeGear, Inc., Hellertown, PA, USA). Small magnetic stir bars were added to each receiver chamber, and 5 mL of 35 °C BSS Plus supplemented with 10 mM of 4-(2-hydroxyethyl)-1-piperazineethanesulfonic acid (HEPES; Lonza Bioscience, Walkersville, MD, USA) was added to the receiver compartment of each Frantz cell. The experiment was initiated by adding 50 µM UAMC-3203 in 10 mM HEPES-BSS Plus solution to the donor compartment. Samples of 500 µL from donor compartments and corneas were collected at the end of the experiments (at 5, 30, 60, and 120 min). The cornea samples were rinsed with PBS, the epithelial layer was scraped off from the corneas, and the remaining stroma–endothelium samples were cut to pieces. The experiments were carried out in triplicates. The samples were stored at −80 °C until liquid chromatography–tandem mass spectrometry (LC-MS/MS) analyses were performed.
The values of apparent partition coefficients (Kp) were calculated using drug concentrations on the tissue samples (at 120 min) and in the donor compartment buffer at time zero (ng/mL).
Quantitative analysis of UAMC-3203 was performed with the LC-MS/MS system that consisted of an Agilent 1290 series liquid chromatograph connected to an Agilent 6495 triple-quadruple mass spectrometer (Agilent Technologies, Inc., USA). The mobile phase consisted of 0.1% formic acid (Fisher chemical, Geel, Belgium), 1 mM ammonium formate (Honeywell, Fluka, Seelze, Germany) in Milli-Q-H2O (eluent A), and acetonitrile (LC-MS Chromasolv, Honeywell, Riedel-de Haen, Seelze, Germany) (eluent B). Gradient elution was used: 0.0 to 3.0 min: 25%→95% B, 3.0 to 3.5 min: 95% B, 3.5 to 3.6 min: 95%→25% B, 3.6 to 5.0 min 25% B. Solvent flow was 0.3 mL/min, and Poroshell 120 SB-C18 column (2.1 mm × 50 mm, 2.7 µm, Agilent Technologies, Inc., USA) was maintained at 60 °C. The injection volume was 2 µL. Nitrogen was used as a drying, nebulizer, and collision gas. The following conditions were used in the electrospray ion source: positive ion mode, sheath gas flow rate 11 L/min at 350 °C, drying gas flow rate 16 L/min at 200 °C, nebulizer gas pressure adjusted to 25 psi, capillary voltage 3500 V (ESI+), fragmentor voltage 380 V, dwell time 150 ms and cell accelerator voltage 5 V. The data were analyzed with Agilent Mass Hunter Quantitative Analyzed software (vB.09.00, build 9.0.647.0, Agilent Technologies, CA, USA). The precursor and fragment ions are presented in Supplementary Table S1.

Data set [3] has as its system mouse model of (multi)organ dysfunction and death. The arrangement: method as in PMID 35210435. The settings on record: cited from earlier work.
The conditions of data set [4]: human microsome; cited from earlier work.
Another data set can be described thus: solubility in buffers. The settings on record: for water solubility: room temperature, 72 h. It is filed as physicochemical. The protocol: Compound UAMC-3203 was synthetized in the laboratory of Medicinal Chemistry at the University of Antwerp, as reported by Devisscher L. et al.. Solubility of UAMC-3203 was determined in 0.1 M citrate buffer (pH 5 and pH 6) and phosphate-buffered saline (PBS, Gibco, Life Technologies Limited, Paisley, UK) at pH 7.4. Excess of UAMC-3203 (10–20 mg) was added to 500 µL of buffer in glass vials that were kept at room temperature and mixed (150 rpm) for 72 h. The pH of the solutions was measured daily with calibrated pH meter (Orion Research Incorporated, Boston, MA, USA) and adjusted if needed (with 0.1 N sodium hydroxide or 0.1 N hydrochloric acid). After 72 h, samples were withdrawn and centrifuged at 13,000 rpm for 15 min. The supernatant was collected and analyzed by high-pressure liquid chromatography (HPLC) for UAMC-3203 concentration.
The quantitation of UAMC-3203 was performed with […] reverse-phase HPLC system consisting of a degasser (G1379B), multi-sampler (G1367D), a binary pump (G1312B), a thermostat (G1316B), and a diode array detector (DAD) detector (G1315C). A Zorbax Eclipse XDB-C18 (4.6 × 50 mm, 4 μm; Agilent Technologies, Santa Clara, CA, USA) column was used for the analyses. The mobile phase was composed of 0.1% […] (Sigma-Aldrich, St. Louis, MO, USA) in Milli-Q-H2O and 0.1% […] in acetonitrile (LC-MS Chromasolv, Honeywell, Riedel-de Haen, Seelze, Germany) (65:35% v/v). Isocratic analysis was performed at a flow rate of 1 mL/min. The injection volume was 5 μL, and the detection wavelength was 240 nm.

In brackets after ≈: the same amount, converted by molar mass.

As for `O=S(=O)(NCCN1CCNCC1)c1ccc(NC2CCCCC2)c(NCc2ccccc2)c1` [UAMC-3203], the “Log D7.4” value in data set [1] is reported as 0.95. Besides, in data set [2], the “Kp epithelium/donor relative to Kp stroma/epithelium” value was “≈ 52 times”. For the same compound, in data set [2] (50 µM donor), the “levels in epithelium higher than in stroma–endothelium” value is 1–2 orders of magnitude. In addition, the “level in the cornea at 5 min” value in data set [2] (50 µM donor, 5 min) was “≈ 20 µM”. In addition, the Kp epithelium/donor in data set [2] (50 µM donor, 120 min) stood at 1.95 ± 0.45. Besides, in data set [2] (50 µM donor, 120 min), the Kp stroma/epithelium is recorded as 0.04 ± 0.02. Further, the “epithelium concentration relative to stroma at 120 min” value in data set [2] (120 min) is listed as “≈ 28 times”. Also, in data set [2] (over the time points), the “concentration in corneal epithelium relative to corneal stroma” value is on record as 12–38 fold. Besides, the “efficacy compared to Fer-1” value in data set [3] is on record as “more effective”. The “t1/2 in human microsome” value in data set [4] was 20 h. For the same compound, the “solubility at pH 6.0 and 7.4 relative to pH 5.0” value in the data set “solubility in buffers” was “about 3.5 times”. For the same compound, the water solubility came out at 36.7 ± 5.7 µM (≈ 17.3 µg/mL) in the data set “solubility in buffers” (pH 5.0, 0.1 M citrate buffer); 127.9 ± 16.1 µM (≈ 60.3 µg/mL) in the data set “solubility in buffers” (pH 6.0, 0.1 M citrate buffer); 127.3 ± 17.3 µM (≈ 60 µg/mL) in the data set “solubility in buffers” (pH 7.4, PBS).

The values above are taken from PMC9863691, “A Novel Ferroptosis Inhibitor UAMC-3203, a Potential Treatment for Corneal Epithelial Wound” (Pharmaceutics, 2022).
